Read-outs that look alike come from different tables or passages of the source. The star is where a group is joined. Lys(Fam) = Lys(Fam): lysine whose ε-amino group carries Fam (fluorescein), added using fluorescein-5-isothiocyanate; Dnp = O=[N+]([O-])c1ccc(*)c([N+](=O)[O-])c1; Mca = COc1ccc2c(CC(=O)*)cc(=O)oc2c1

The target in assay [1] is T1, ADAMTS-4 (aggrecanase-1) (Homo sapiens, UniProt O75173).
T1 sequence (O75173 213-685 limits assumed): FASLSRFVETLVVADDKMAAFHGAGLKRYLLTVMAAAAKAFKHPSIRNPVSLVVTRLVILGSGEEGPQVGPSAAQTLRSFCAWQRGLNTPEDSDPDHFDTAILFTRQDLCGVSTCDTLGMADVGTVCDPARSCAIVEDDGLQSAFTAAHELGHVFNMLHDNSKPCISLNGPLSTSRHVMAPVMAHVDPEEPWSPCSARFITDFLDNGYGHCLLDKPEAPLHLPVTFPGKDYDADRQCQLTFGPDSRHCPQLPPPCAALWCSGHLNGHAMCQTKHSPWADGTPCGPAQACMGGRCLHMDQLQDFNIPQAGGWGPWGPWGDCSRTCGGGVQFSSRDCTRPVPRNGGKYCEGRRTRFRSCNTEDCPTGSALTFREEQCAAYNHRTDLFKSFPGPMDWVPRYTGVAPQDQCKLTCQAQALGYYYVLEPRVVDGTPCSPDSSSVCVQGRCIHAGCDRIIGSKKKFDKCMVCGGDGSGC
Description: ADAMTS-4 inhibition assay, FRET substrate hydrolysis. The assay is classed as biochemical.

The target in assay [2] is T1, ADAMTS-4 (aggrecanase-1). Kind of assay: ADAMTS-4 inhibition, RP-HPLC analysis of cleavage products.
In assay [3] the test system is ADAMTS-4. The following applies: ADAMTS-4 aggrecanase activity; cited from earlier work.
For the next assay, the system named is MMP-7. The following applies: cited from earlier work.
For assay [4], the system named is MMP-1. The conditions noted are these: MMP-1, inhibitor concentration 50 μM; cited from earlier work.
In a further assay the test system is ADAMTS-1. The following applies: ADAMTS-1 aggrecanase activity; cited from earlier work.
The next assay relates to MMP-13. The conditions noted are these: MMP-13, inhibitor concentration 50 μM; cited from earlier work.
The target in assay [5] is T2, MMP-9 (Homo sapiens, UniProt P14780). The conditions noted are these: cited from earlier work.
Assay [6] deals with T3, MMP-2 (Homo sapiens, UniProt P08253).
T3 sequence (P08253 110-660): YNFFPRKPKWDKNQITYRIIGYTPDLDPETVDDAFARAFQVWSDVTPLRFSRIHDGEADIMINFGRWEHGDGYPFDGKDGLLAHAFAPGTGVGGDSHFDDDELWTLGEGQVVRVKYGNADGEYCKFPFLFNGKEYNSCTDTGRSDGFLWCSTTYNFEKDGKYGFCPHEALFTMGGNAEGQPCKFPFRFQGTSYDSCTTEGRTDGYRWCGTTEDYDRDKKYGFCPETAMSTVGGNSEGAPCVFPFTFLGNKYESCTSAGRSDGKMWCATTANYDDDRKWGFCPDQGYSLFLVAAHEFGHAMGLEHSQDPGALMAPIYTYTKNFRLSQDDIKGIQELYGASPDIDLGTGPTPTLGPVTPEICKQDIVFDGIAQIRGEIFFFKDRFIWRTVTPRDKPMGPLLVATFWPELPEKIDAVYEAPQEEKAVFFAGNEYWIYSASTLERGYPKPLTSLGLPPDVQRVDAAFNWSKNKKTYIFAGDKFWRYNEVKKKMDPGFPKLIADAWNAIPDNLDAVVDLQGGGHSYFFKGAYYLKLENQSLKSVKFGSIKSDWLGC
The conditions noted are these: cited from earlier work.

A further assay deals with MT1-MMP. The conditions noted are these: cited from earlier work.
In a further assay the test system is ADAM-10. The conditions noted are these: ADAM-10, inhibitor concentration 50 μM; cited from earlier work.
Assay [7] deals with T3, MMP-2. The following applies: read-out: KM value for MMP hydrolysis; cited from earlier work.
In assay [8] the target is T4, MMP-8 (Homo sapiens, UniProt P22894). The conditions noted are these: read-out: KM value for MMP hydrolysis; cited from earlier work.
Assay [9] deals with T5, ADAMTS-5 (Homo sapiens, UniProt Q9UNA0).
T5 sequence (Q9UNA0 262-731 limits assumed): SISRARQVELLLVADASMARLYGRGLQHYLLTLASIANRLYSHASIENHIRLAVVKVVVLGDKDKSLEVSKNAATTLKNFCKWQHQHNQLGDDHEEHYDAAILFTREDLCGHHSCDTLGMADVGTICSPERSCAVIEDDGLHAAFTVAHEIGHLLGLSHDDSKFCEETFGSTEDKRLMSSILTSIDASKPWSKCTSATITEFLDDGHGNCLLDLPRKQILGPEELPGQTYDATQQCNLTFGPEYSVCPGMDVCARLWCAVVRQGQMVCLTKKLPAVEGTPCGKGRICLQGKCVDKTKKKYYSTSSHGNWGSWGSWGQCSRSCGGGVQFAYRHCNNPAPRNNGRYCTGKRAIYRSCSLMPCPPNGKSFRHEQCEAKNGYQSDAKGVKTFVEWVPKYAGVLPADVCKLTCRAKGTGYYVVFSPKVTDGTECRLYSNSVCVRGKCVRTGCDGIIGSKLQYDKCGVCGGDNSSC
Kind of assay: ADAMTS-5 inhibition, RP-HPLC analysis of cleavage products. It is filed as biochemical. The conditions noted are these: ADAMTS-5, data not shown.

For assay [10], the target named is T3, MMP-2. Description: MMP-2 inhibition assay with FRET substrates. The assay is classed as biochemical.
Assay [11] relates to MMP-1. The conditions noted are these: cited from earlier work.
Assay [12] has as its target T3, MMP-2. The following applies: cited from earlier work. This is another data set of the same source.
Assay [13] addresses T2, MMP-9. The conditions noted are these: cited from earlier work. This is another data set of the same source.
Assay [14] concerns ADAMTS-4. The conditions noted are these: read-out: KM value for ADAMTS-4 hydrolysis; substrate kinetics; cited from earlier work.
Assay [15] addresses T6, MMP-12 (Homo sapiens, UniProt P39900). The following applies: read-out: KM value for MMP hydrolysis; cited from earlier work.
Assay [16] concerns the target T2, MMP-9. The conditions noted are these: read-out: KM value for MMP hydrolysis; cited from earlier work.
For assay [17], the target named is T6, MMP-12. Description: MMP-12 inhibition assay with FRET substrates. The assay is classed as biochemical. The conditions noted are these: MMP-12, substrate fMMPSshort.
Assay [18] concerns the target T2, MMP-9. Kind of assay: MMP-9 inhibition assay with FRET substrates. The following applies: MMP-9, substrate fMMPSlong. It is filed as biochemical.
Assay [19] has as its target T4, MMP-8. Description: MMP-8 inhibition assay with FRET substrates. The assay is classed as biochemical.
Assay [20] deals with T5, ADAMTS-5. Kind of assay: ADAMTS-5 inhibition assay, FRET substrate hydrolysis. The assay is classed as biochemical.

T2 sequence (P14780 94-707, species assumed): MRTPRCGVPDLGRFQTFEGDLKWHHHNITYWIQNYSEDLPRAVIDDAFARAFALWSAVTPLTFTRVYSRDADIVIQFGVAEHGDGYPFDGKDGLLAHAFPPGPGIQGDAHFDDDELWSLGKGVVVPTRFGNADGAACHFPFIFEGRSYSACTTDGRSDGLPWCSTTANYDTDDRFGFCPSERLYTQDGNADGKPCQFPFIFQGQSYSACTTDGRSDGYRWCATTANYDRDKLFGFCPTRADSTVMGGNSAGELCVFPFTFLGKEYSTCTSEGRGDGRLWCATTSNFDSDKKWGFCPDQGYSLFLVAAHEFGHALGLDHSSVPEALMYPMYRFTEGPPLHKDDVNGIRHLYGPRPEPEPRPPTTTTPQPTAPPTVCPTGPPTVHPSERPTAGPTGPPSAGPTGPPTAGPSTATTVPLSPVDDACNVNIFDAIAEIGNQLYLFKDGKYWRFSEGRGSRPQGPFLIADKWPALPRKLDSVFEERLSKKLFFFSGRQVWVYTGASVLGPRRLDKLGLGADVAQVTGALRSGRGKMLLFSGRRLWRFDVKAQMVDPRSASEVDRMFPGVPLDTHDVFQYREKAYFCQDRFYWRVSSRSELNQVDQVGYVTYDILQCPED
T4 sequence (P22894 101-467, species assumed): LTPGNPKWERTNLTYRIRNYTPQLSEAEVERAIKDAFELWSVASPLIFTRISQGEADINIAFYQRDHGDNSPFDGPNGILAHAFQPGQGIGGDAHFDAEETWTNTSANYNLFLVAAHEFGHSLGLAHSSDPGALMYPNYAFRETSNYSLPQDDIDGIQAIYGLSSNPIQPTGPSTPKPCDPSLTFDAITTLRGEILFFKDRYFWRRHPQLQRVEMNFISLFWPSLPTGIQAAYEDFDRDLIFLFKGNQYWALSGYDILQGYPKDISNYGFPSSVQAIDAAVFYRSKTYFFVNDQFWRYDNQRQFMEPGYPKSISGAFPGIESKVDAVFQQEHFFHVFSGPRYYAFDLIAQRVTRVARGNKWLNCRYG
T6 sequence (P39900 106-470, species assumed): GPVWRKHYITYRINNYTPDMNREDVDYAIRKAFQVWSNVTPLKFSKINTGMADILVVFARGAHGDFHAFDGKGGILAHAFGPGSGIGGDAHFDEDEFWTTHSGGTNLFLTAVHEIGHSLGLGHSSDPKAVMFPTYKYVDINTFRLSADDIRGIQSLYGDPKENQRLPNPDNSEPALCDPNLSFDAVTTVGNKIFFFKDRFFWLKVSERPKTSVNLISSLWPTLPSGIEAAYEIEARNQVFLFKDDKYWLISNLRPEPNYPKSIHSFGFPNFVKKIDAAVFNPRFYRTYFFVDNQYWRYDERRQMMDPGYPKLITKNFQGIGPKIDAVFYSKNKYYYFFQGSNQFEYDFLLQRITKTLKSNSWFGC

Turning to `C(=C/c1ccccc1)/c1ccccc1` [Compound 6, cis-1,2-diphenylethylene], the half-inhibitory concentration (IC50) (in general, the point on the concentration scale where inhibition reaches its midpoint) against ADAMTS-4 (aggrecanase-1) [1] is approximately 100 µM; against ADAMTS-4 (aggrecanase-1) [2], more than 100 µM.

As for `O=C(O[C@@H]1Cc2c(O)cc(O)cc2O[C@@H]1c1cc(O)c(O)c(O)c1)c1cc(O)c(O)c(O)c1` [Compound 1, (−)-epigallocatechin gallate], the IC50 is 0.1 to 0.15 µM with ADAMTS-4 [3]; 1.6 µM in the assay with MMP-7; 0.2 to 0.25 µM in the assay on ADAMTS-1; 0.8 to 13 µM at MMP-9 [5] (MMP-9); 6 to 8 µM at MMP-2 [6] (MMP-2); 0.019 µM in the assay on MT1-MMP. The inhibition in the assay with MMP-1 [4], with MMP-13 and in the assay with ADAM-10 was 14–30% in each case.

Turning to “(Gly-Pro-Hyp)5-Gly-Pro-Lys(Mca)-Gly-Pro-Gln-Gly~Leu-Arg-Gly-Gln-Lys(Dnp)-Gly-Val-Arg-(Gly-Pro-Hyp)5-NH2 [fMMPSlong]”, the values for the Michaelis constant (Km) on MMP-2 [7] and on MMP-8 [8] were 17.2 µM and 7.6 µM, respectively.

Regarding `Oc1cc(O)cc(/C=C/c2ccc(O)c(O)c2)c1` [Compound 3, (E)-4-[2-(3,5-dihydroxyphenyl)ethenyl]1,2-benzediol], the “inhibition of substrate hydrolysis by RP-HPLC analysis” value at ADAMTS-5 [9] is “inhibited”. In addition, the Ki at MMP-2 [10] (MMP-2, substrate fMMPSlong) was found to be 10 ± 0.89 µM; on MMP-2 [10] (MMP-2, substrate fMMPSshort), 12.2 ± 1.82 µM.

Regarding `O=c1cc(-c2ccc(O)cc2)oc2cc(O)cc(O)c12` [apigenin], the IC50 with MMP-1 [11] was more than 100 µM. Besides, the EC50 (as a rule, the concentration at which the effect is half-maximal) on MMP-2 [12] was 7.5 µM.

On to `O=c1c(O)c(-c2ccc(O)c(O)c2)oc2cc(O)cc(O)c12` [quercetin], for which the IC50 in the assay on MMP-1 [11] was 39.6 µM.

Regarding `O=c1cc(-c2ccc(O)c(O)c2)oc2cc(O[C@@H]3O[C@H](CO)[C@@H](O)[C@H](O)[C@H]3O)cc(O)c12` [luteolin-7-O-glucoside], the EC50 on MMP-9 [13] (MMP-9) was 4.6 µM.

In the case of `Oc1ccccc1O` [Compound 9, 1,2-dihydroxybenzene], the IC50 against ADAMTS-4 (aggrecanase-1) [1] is 20 µM; on ADAMTS-4 (aggrecanase-1) [2], more than 100 µM.

For the molecule `O=c1c(O)c(-c2ccc(O)cc2)oc2cc(O)cc(O)c12` [kaempferol], the IC50 with MMP-1 [11] was 43.7 µM.

As to `O=C(O[C@@H]1Cc2c(O)cc(O)cc2O[C@@H]1c1ccc(O)c(O)c1)c1cc(O)c(O)c(O)c1` [Compound 2, (−)-epicatechin gallate], the 50% inhibitory concentration (IC50) with ADAMTS-4 [3] is 0.1 to 0.15 µM; in the assay on ADAMTS-1, 0.2 to 0.25 µM. Further, the inhibition in the assay on MMP-1 [4], with MMP-13 and in the assay with ADAM-10 was 14–30% in each case.

In the case of “Lys(Fam)-Asp-Val-Gln-Glu-Phe-Arg-Gly-Val-Thr-Ala-Val-Ile-Arg-Lys(Tamra)-Lys-Gly-Lys-NH2 ({Lys(Fam)}-DVQEFRGVTAVIRK(Tamra)KGK-NH2) [fTSS1]”, the Km – broadly, the concentration of substrate that gives half-maximal velocity – in the assay with ADAMTS-4 [14] is approximately 35 µM.

In the case of `O=c1cc(-c2ccc(O)c(O)c2)oc2cc(O)cc(O)c12` [luteolin], at MMP-9 [13] (MMP-9, noncompetitive mechanism), the Ki was 5.4 µM.

Take `COc1ccc(C=Cc2cc(O)cc(OC3OC(CO)C(O)C(O)C3O)c2)cc1O` (stereo not shown) [Compound 8, 2-[3-hydroxy-5-[2-(3-hydroxy-4-methoxyphenyl)ethenyl]phenoxy]-6-(hydroxymethyl)oxane-3,4,5-triol]: the figures for the 50% inhibitory concentration (IC50) against ADAMTS-4 (aggrecanase-1) [1] and against ADAMTS-4 (aggrecanase-1) [2] were 50 µM and more than 100 µM, respectively.

Turning to `Oc1ccc(/C=C/c2cc(O)cc(O)c2)cc1` [Compound 4, 5-[(1E)-2-(4-hydroxyphenyl)ethenyl]-1,3-benzenediol], at MMP-9 [5] (prior study), the “inhibition of MMP-9” value is given as “not an inhibitor”. In addition, the half-inhibitory concentration (IC50) against ADAMTS-4 (aggrecanase-1) [1] was 50 µM; against ADAMTS-4 (aggrecanase-1) [2], more than 100 µM. At MMP-2 [6] (prior study), the “inhibition of MMP-2” value is recorded as “not an inhibitor”.

Regarding `C(=C\c1ccccc1)/c1ccccc1` [Compound 5, trans-1,2-diphenylethylene], the concentration for half-maximal inhibition (IC50) against ADAMTS-4 (aggrecanase-1) [1] and against ADAMTS-4 (aggrecanase-1) [2] was more than 100 µM throughout.

As to “Mca-Lys-Pro-Leu-Gly-Leu-Lys(Dnp)-Ala-Arg-NH2 (Mca-KPLGLK(Dnp)AR-NH2; SMILES COc1ccc2c(CC(=O)N[C@@H](CCCCN)C(=O)N3CCC[C@H]3C(=O)N[C@@H](CC(C)C)C(=O)NCC(=O)N[C@@H](CC(C)C)C(=O)N[C@@H](CCCCNc3ccc([N+](=O)[O-])cc3[N+](=O)[O-])C(=O)N[C@@H](C)C(=O)N[C@@H](CCCNC(=N)N)C(N)=O)cc(=O)oc2c1) [fMMPSshort]”, the Michaelis-Menten constant (Km) with MMP-12 [15] is 130 µM; in the assay with MMP-9 [16], 27.7 µM.

In the case of `Oc1cccc(O)c1O` [Compound 10, 1,2,3-trihydroxybenzene], the Ki at MMP-12 [17] came to 34.4 ± 3.99 µM; on MMP-9 [18], 8.29 ± 0.63 µM; at MMP-8 [19] it was 10.3 ± 0.94 µM; on ADAMTS-5 [20] (Ki, ADAMTS-5, substrate fTSSshort, apparent Ki), 36.9 ± 8.82 µM; on MMP-2 [10] (MMP-2, substrate fMMPSshort), 11.3 ± 0.52 µM. At ADAMTS-5 [9], the “inhibition of substrate hydrolysis by RP-HPLC analysis” value is on record as “inhibited”. Also, the “inhibition of substrate hydrolysis by fluorescence analysis” value at ADAMTS-5 [20] (ADAMTS-5, data not shown) is “inhibited”.

With `COc1ccc(/C=C/c2cc(O)cc(OC3OC(CO)C(O)C(O)C3O)c2)cc1` (stereo not shown) [Compound 7, 2-[3-hydroxy-5-[(E)-2-(4-methoxyphenyl)ethenyl]phenoxy]-6-(hydroxymethyl)oxane-3,4,5-triol], the IC50 at ADAMTS-4 (aggrecanase-1) [1] is 20 µM; at ADAMTS-4 (aggrecanase-1) [2] it was more than 100 µM.

These data come from article PMC2782546 (Chemical biology & drug design, 2009).
